# In patent US5843399A, “DTPA monoamides for MRI” (Schering Aktiengesellschaft, priority 1990, dated 1998):
# Key:
# stomach = settings: i.v., 0.1 mmol of Gd/kg, 60 minutes after administration (image no. 2)
# Procedure: (§1) A cell suspension of the Brown-Pearce tumor was injected in the liver in a test animal (rat, strain lew/mol, female, 155 g) two weeks before the test. In the method used, about 2 weeks were required until the tumor had reached the size of 0.5-1 cm^3 desired for the test.
# (§2) For the test, the animal was anesthetized (Rompun+Ketavet) and then a catheter was placed in the caudal vein for the administration of the contrast medium.
# The imaging took place in an MRI experimental device of the General Electric company (field strength 2 teslas). The first image was made without contrast media with a T1 -weighted spin echo sequence (TR=400 msec, TE=20 msec, layer thickness 3 mm). […] Then, the administration of the contrast medium [gadolinium complex of 3,6-bis(carboxymethyl)-9-(10-carboxydecylcarbamoylmethyl)-3,6,9-triazaundecanedioic acid, Example 1b)] took place through the vein catheter with a dose of 0.1 mmol of Gd/kg (concentration of the solution of 0.05 mmol/ml in 0.9% NaCl, i.e. a clinically usual dose, e.g., in the case of the commercial preparation Magnevist®). […] 2 was taken 60 minutes after the administration of the contrast medium under conditions which were otherwise the same as image no.
# liver = settings: p.o., 0.5 mmol of Gd/kg
# Procedure: In another animal (rat, strain Lew/mol, female, 200 g), the same contrast medium was administered orally with a p.o. sample in a dose of 0.5 mmol of Gd/kg (concentration of the solution 0.033 mmol of Gd/ml, in 0.9% NaCl). The animal was anesthetized 30 minutes after the administration and examined under the same conditions as described in the first case.
# [1] = test system: liver / Brown-Pearce tumor; test: In vivo NMR diagnosis, intravenous, liver with Brown-Pearce tumor; parameters: species or system rat; settings: i.v., 0.1 mmol of Gd/kg, 60 minutes after administration
# Procedure: as §1, §2
# The imaging took place in an MRI experimental device of the General Electric company (field strength 2 teslas). The first image was made without contrast media with a T1 -weighted spin echo sequence (TR=400 msec, TE=20 msec, layer thickness 3 mm). […] 2 was taken 60 minutes after the administration of the contrast medium under conditions which were otherwise the same as image no.
# human serum albumin = test: Association with human serum albumin in aqueous solution; assay type: binding
SMILES,enhancement of the stomach (stomach),"signal in the liver, 45 minutes (liver; 45 minutes after administration (image 3))","enhancement in the liver, 180 minutes (liver; 180 minutes after administration (image 4))",concentration of the contrast medium in liver and tumor [1],"appearance of the liver parenchyma in MRI image ([1]; 2 teslas, T1-weighted spin echo)",appearance of the tumor in MRI image ([1]; Brown-Pearce tumor in liver),association with human serum albumin (human serum albumin)
"O=C(O)CCCCCCCCCCNC(=O)CN(CCN(CCN(CC(=O)O)CC(=O)O)CC(=O)O)CC(=O)O.[Gd] [Example 1b, Gadolinium complex of 3,6-bis(carboxymethyl)-9-(10-carboxydecylcarbamoylmethyl)-3,6,9-triazaundecanedioic acid]",very strong enhancement of the stomach,a slight increase in the signal in the liver,A marked enhancement in the liver,"concentrated in the liver to a great extent, but, not in the tumor",very bright,considerably darker in comparison with the surrounding liver tissue,
"CCCCCCC(CCCCCCCCCCC(=O)O)NC(=O)CN(CCN(CCN(CC(=O)O)CC(=O)O)CC(=O)O)CC(=O)O.[Gd] (stereo not shown) [Example 4b, Gadolinium complex of 3,6-bis(carboxymethyl)-9-(11-carboxy-1-n-hexyl-undecylcarbamoylmethyl)-3,6,9-triazaundecanedioic acid]",,,,,,,forms associates in aqueous solution with human serum albumin
